US20240294464A1, “SYNTHESIS OF RESTRAINED COMPLEXING AGENTS” (Genentech, Inc., priority 2021, published 2024)

Assay: stability of compound 1 in prep-HPLC fractions
Type: physicochemical
Settings: prep-HPLC fractions (0.01% TFA aqueous solution / acetonitrile); needs to freeze immediately for lyophilization
From the text: The crude compound 1 was purified by prep-HPLC (Mobile phase A: 0.01% TFA aqueous solution (v/v); Mobile phase B: Acetonitrile) and the purified product was lyophilized to give compound 1 with 98 A % HPLC purity as a white solid in 51% yield over two steps. (Note: The compound 1 in prep-HPLC fractions is not stable, and it needs to freeze immediately for lyophilization. The residual TFA in solid is 0.1 equiv to E)

## O=C(O)CN(CC(=O)O)[C@@H]1CCCC[C@H]1N(CC(=O)O)Cc1ccc(CC(=O)Oc2c(F)c(F)cc(F)c2F)cc1 [compound 1, 2,2′-(((1R,2R)-2-((carboxymethyl)(4-(2-oxo-2-(2,3,5,6-tetrafluorophenoxy)ethyl)benzyl)amino)cyclohexyl)azanediyl)diacetic acid]
  stability in prep-HPLC fractions: not stable
